Data from patent publication US20220000798A1, “TRANS-RESVERATROL TOPICAL MEDICATION FOR THE TREATMENT OF PAIN AND METHOD OF MANUFACTURE THEREOF” (Ted's Brain Science, Inc., priority 2017, published 2022).

How the values were obtained:
pain = settings: animal model (rodents); administration by injection; cited from earlier work
AMPK = AMPK activation by resveratrol isomers; assay type: biochemical; settings: isomer of resveratrol
Text: It is thus realized herein that including cis-resveratrol in a topical medication would be particularly disadvantageous, because it would contribute to the grainy or greasy feeling of the medication without contributing to its AMPK-activating efficacy.

[1] = storage stability of trans-resveratrol powder; assay type: physicochemical; settings: well-sealed containers kept away from light
Experimental: In one embodiment, trans-resveratrol is prepared in the form of off-white to cream-colored powder with >99% purity as determined by high-performance liquid chromatography (HPLC) methodology. The resulting powder has a melting point of 260-264° C.

Row | stability over time [1] | Structure (SMILES) | efficacy in mitigation of pain (pain) | AMPK activation (AMPK)
1 | – | Oc1ccc(C=Cc2cc(O)cc(O)c2)cc1 [resveratrol] | has shown efficacy in mitigation of pain | –
2 | over two years | Oc1ccc(/C=C/c2cc(O)cc(O)c2)cc1 [trans-resveratrol, 3,4′,5-trihydroxystilbene] | – | activates AMPK
3 | – | Oc1ccc(/C=C\c2cc(O)cc(O)c2)cc1 [Cis-resveratrol] | – | appears not to activate AMPK to any meaningful degree or extent
